US20100216751A1 (priority 2007, published 2010)

Assay: Pharmacokinetic evaluation of liquid bevirimat dosage forms, oral gavage, male Cynomolgus monkeys
Settings: male, cynomolgus monkey, in vivo, po; for AUC / Cmax / half-life / Tmax: 200 mg
Procedure: Six male Cynomolgus monkeys having an initial body weight of about 3.5 to about 4.5 kg are allowed 7 days to acclimate to their individual housing units. Monkeys are supplied with water and a commercial diet ad libitum prior to the study initiation. Food is withheld from the monkeys for a minimum of twelve hours before the study and during the study until four hours postdose when food is returned. Water is supplied ad libitum.
Test formulations are administered to the monkeys at time 0 on appropriate days. Test formulations will be dosed orally via oral gavage or intravenously.
Samples are drawn at the frequencies indicated below. Each blood sample (0.5 mL) is collected from the monkey's saphenous vein via a butterfly catheter and placed into a chilled polypropylene tube containing sodium heparin as the anticoagulant. Blood samples are centrifuged at a temperature of 4° C. at a speed of 3,000 rpm for 15 minutes. All samples are maintained chilled throughout processing. Plasma is collected after centrifugation, pipetted into a 2-mL polypropylene microtube, and frozen on dry-ice pending analytical evaluation.

[1] = 50 mg/monkey, Plasma Concentration, PG/glycerin/Vitamin ETPGS/Tween80/Plasdone C15 formulation, AVG
[2] = 50 mg/monkey, Plasma Concentration, PG/glycerin/Vitamin ETPGS/Tween80/Plasdone C15 formulation, individual monkey
[3] = 50 mg/monkey, Plasma Concentration, PG/glycerin/Vitamin ETPGS/ethanol formulation, AVG
[4] = 50 mg/monkey, Plasma Concentration, PG/glycerin/Vitamin ETPGS/ethanol formulation, individual monkey
[5] = 200 mg/monkey, Plasma Concentration, PG/glycerin/Vitamin ETPGS/ethanol formulation, AVG
[6] = 200 mg/monkey, Plasma Concentration, PG/glycerin/Vitamin ETPGS/ethanol formulation, individual monkey

Q: Which results are given for `C=C(C)[C@@H]1CC[C@]2(C(=O)O)CC[C@]3(C)[C@H](CC[C@@H]4[C@@]5(C)CC[C@H](OC(=O)CC(C)(C)C(=O)O)C(C)(C)[C@@H]5CC[C@]43C)[C@@H]12` [Bevirimat, 3-O-(3′,3′-dimethylsuccinyl)betulinic acid]?
A: concentration at 1 h (50 mg/monkey, Plasma Concentration, PG/glycerin/Vitamin ETPGS/Tween80/Plasdone C15 formulation, 1.0 hr, AVG): 24800 ng/mL; concentration at 2 h [1]: 61600 ng/mL; concentration at 2 h [2]: 52700 ng/mL; concentration at 4 h [1]: 53600 ng/mL; concentration at 4 h [2]: 55100 ng/mL; concentration at 6 h [1]: 32300 ng/mL; concentration at 6 h [2]: 31500 ng/mL; concentration at 8 h (50 mg/monkey, Plasma Concentration, PG/glycerin/Vitamin ETPGS/Tween80/Plasdone C15 formulation, 8.0 hr, AVG): 21000 ng/mL; concentration at 8 h (50 mg/monkey, Plasma Concentration, PG/glycerin/Vitamin ETPGS/Tween80/Plasdone C15 formulation, 8.0 hr, individual monkey): 22300 ng/mL; concentration at 12 h (50 mg/monkey, Plasma Concentration, PG/glycerin/Vitamin ETPGS/Tween80/Plasdone C15 formulation, 12 hr, AVG): 8160 ng/mL; concentration at 12 h (50 mg/monkey, Plasma Concentration, PG/glycerin/Vitamin ETPGS/Tween80/Plasdone C15 formulation, 12 hr, individual monkey): 8580 ng/mL; concentration at 24 h (50 mg/monkey, Plasma Concentration, PG/glycerin/Vitamin ETPGS/Tween80/Plasdone C15 formulation, 24 hr, AVG): 1270 ng/mL; concentration at 24 h (50 mg/monkey, Plasma Concentration, PG/glycerin/Vitamin ETPGS/Tween80/Plasdone C15 formulation, 24 hr, individual monkey): 1320 ng/mL; concentration at 48 h (50 mg/monkey, Plasma Concentration, PG/glycerin/Vitamin ETPGS/Tween80/Plasdone C15 formulation, 48 hr, AVG): 336 ng/mL; concentration at 72 h (50 mg/monkey, Plasma Concentration, PG/glycerin/Vitamin ETPGS/Tween80/Plasdone C15 formulation, 72 hr, individual monkey): 112 ng/mL; concentration at 0.25 h (50 mg/monkey, Plasma Concentration, PG/glycerin/Vitamin ETPGS/ethanol formulation, 0.25 hr, individual monkey): 78.4 ng/mL; concentration at 0.5 h (50 mg/monkey, Plasma Concentration, PG/glycerin/Vitamin ETPGS/ethanol formulation, 0.50 hr, AVG): 246 ng/mL; concentration at 1 h (50 mg/monkey, Plasma Concentration, PG/glycerin/Vitamin ETPGS/ethanol formulation, 1.0 hr, AVG): 36900 ng/mL; concentration at 2 h [3]: 60100 ng/mL; concentration at 2 h [4]: 58900 ng/mL; concentration at 4 hr [3]: 42500 ng/mL; concentration at 4 h [4]: 34500 ng/mL; concentration at 6 hr [3]: 23000 ng/mL; concentration at 8 hr (50 mg/monkey, Plasma Concentration, PG/glycerin/Vitamin ETPGS/ethanol formulation, 8.0 hr, AVG): 14700 ng/mL; concentration at 12 hr (50 mg/monkey, Plasma Concentration, PG/glycerin/Vitamin ETPGS/ethanol formulation, 12 hr, AVG): 5310 ng/mL; concentration at 24 hr (50 mg/monkey, Plasma Concentration, PG/glycerin/Vitamin ETPGS/ethanol formulation, 24 hr, AVG): 1340 ng/mL; concentration at 48 hr (50 mg/monkey, Plasma Concentration, PG/glycerin/Vitamin ETPGS/ethanol formulation, 48 hr, AVG): 149 ng/mL; AUC (AUCall): 1300 µg·h/mL; AUC (AUCall, 200 mg/monkey, PG/glycerin/Vitamin ETPGS/ethanol formulation, individual monkey): 1200 µg·h/mL; Cmax (Cmax, 200 mg/monkey, PG/glycerin/Vitamin ETPGS/ethanol formulation, AVG): 217000 ng/mL; Cmax (Cmax, 200 mg/monkey, PG/glycerin/Vitamin ETPGS/ethanol formulation, individual monkey): 202000 ng/mL; AUC (pH 8): 1970 µg·h/mL; Cmax (pH 8): 225000 ng/mL; half-life (pH 8): 8.3 h; AUC (pH 8, AUCall): 1390 µg·h/mL; Tmax (pH 8, tmax): 2 h; half-life (t1/2, oral, 200 mg/monkey, PG/glycerin/Vitamin ETPGS/ethanol formulation, AVG): 10.8 h; half-life (t1/2, oral, 200 mg/monkey, PG/glycerin/Vitamin ETPGS/ethanol formulation, individual monkey): 11.4 h; Tmax (tmax): 2 h; concentration at 0.25 hr (200 mg/monkey, Plasma Concentration, PG/glycerin/Vitamin ETPGS/ethanol formulation, 0.25 hr, AVG): 565 ng/mL; concentration at 0.5 hr (200 mg/monkey, Plasma Concentration, PG/glycerin/Vitamin ETPGS/ethanol formulation, 0.50 hr, AVG): 6020 ng/mL; concentration at 1 hr (200 mg/monkey, Plasma Concentration, PG/glycerin/Vitamin ETPGS/ethanol formulation, 1.0 hr, AVG): 64800 ng/mL; concentration at 2 hr [5]: 217000 ng/mL; concentration at 2 hr [6]: 202000 ng/mL; concentration at 4 hr [5]: 152000 ng/mL; concentration at 4 hr [6]: 166000 ng/mL; concentration at 6 hr [5]: 77800 ng/mL
